From US20240191273A1, “ANTHOCYANIN BIOPRODUCTION IN A CELL-FREE MANUFACTURING SYSTEM” (DEBUT BIOTECHNOLOGY, INC., priority 2021, published 2024)

Experiments:
[1] = stability of cyanidin in solution; assay type: physicochemical
[2] = solubility of cyanidin in water; assay type: physicochemical

In the case of `Oc1cc(O)c2cc(O)c(-c3ccc(O)c(O)c3)[o+]c2c1` [cyanidin], the stability in water ([1]; in water at 49 mg/L) is reported as “degrade within minutes”, the “pH of highest stability” value ([1]; pH of the solution) is reported as < 5.0 and the solubility [2] is reported as 49 µg/mL.
